# Test results published in patent publication US20230174649A1, “PHARMACEUTICAL COMPOSITIONS CONTAINING ANTI-CD47 ANTIBODIES” (I-MAB BIOPHARMA US LIMITED, priority 2020, published 2023).
# Values joined by “and” are separate entries in the source; they are usually repeats but may differ in a detail not shown here. Equal entries are not always repeated.
# Columns and labels:
# [1] = test system: macrophages; assay: Macrophage Viability Assay (CellTiter-Glo); format: cell-based, Human; conditions: for Macrophage viability (CellTiter-Glo Luminescent Cell Viability Assay): 16 hours, three replicate lines
# Experimental: Then, the monocytes isolated by MACS were subsequently cultured in fresh complete medium supplemented with recombinant human granulocyte-macrophage colony-stimulating factor GM-CSF (50 ng/ml) and human recombinant IL-4 (35 ng/ml) to activate differentiated macrophages. After 6 days of culture (on day 7), cells were harvested, pooled together and counted for next use.
# The cells from Example 2 were plated into a 96-well flat bottom plate at a density of 0.05×10^6 cells/well. After 2 hours of incubation, the macrophages were well attached to the plate. Then selected small molecule therapeutic agents were added to the well and cocultured for 16 hours. On day 8, macrophage viability was assessed by CellTiter-Glo® Luminescent Cell Viability Assay, according to the manufacture's instruction.
# [2] = test system: CD47; assay: FACS analysis of expression level of CD47 on tumor cell surface; format: cell-based, Human; conditions: Toledo cells; for Mean Fluorescence Intensity (MFI) CD47: 12 hours
# Experimental: (§1) For FACS analysis, on the day of analysis (day 1), Toledo cells were seeded into 96 well plate and cultured at a density of 0.2×10^6 cells/well. Then the cells were treated with the selected small molecule therapeutic agents for 12 hours.
# (§2) On day 2, cells were harvested, washed twice and then re-suspended in 100 uL FACS buffer subject to FACS analysis. For detection of the expression of calreticulin and CD47, cells were incubated with anti-calreticulin antibody and commercially available anti-CD47 antibody (BD Biosciences, Catalog number: 561249) in dark at 4° C. for 30 mins.
# (§3) Then, the cells were subject to FACS analysis. Data was acquired and analyzed.
# [3] = test system: Calreticulin; assay: FACS analysis of expression level of calreticulin on tumor cell surface; format: cell-based, Human; conditions: Toledo cells; for Mean Fluorescence Intensity (MFI) Calreticulin: 12 hours
# Experimental: as §1, §2, §3
# [4] = test system: Toledo Cells; assay: FACS-based phagocytosis assay, macrophages cocultured with Toledo cells; format: cell-based, Human
# Experimental: FACS-based phagocytosis assays were performed to evaluate the phagocytic abilities of macrophages.
# Toledo Cells (a tumor cell line, as a target) were labelled with CellTrace™ Far Red and plated into 96-well plate at a density of 0.15×10^6 cells/well for 12 hours. The Macrophages were prepared as discussed above and then labelled with CellTrace Violet. Next, the macrophages were added into the plate as an effector at an effector:target (Toledo) ratio of 1:3, giving a final density of macrophages at 0.05×10^6 cells/well. Macrophages and tumor cells were cocultured for 2-6 h at 37° C. in the presence of the indicated treatments (small molecule therapeutic agents, CD47 antibody, CD20 antibody or combinations). The incubation time depending on the phagocytosis rate, expecting phagocytosis of 5-20% cells.
# Then, cells were acquired and data were analyzed.
# [5] = test system: WSU-DLCL2 cells; assay: Anti-tumor efficacy in WSU-DLCL2 tumor xenograft model; format: in vivo, NOD/SCID mice; conditions: 5 mg/kg each agent; for T/C (%) / TGI (%): day 43
# Text: To establish the xenograft model, human diffuse large B Cell lymphoma (WSU-DLCL2 cells) were subcutaneously (s.c.) injected into 6- to 7-week-old NOD/SCID mice (Shanghai Lingchang Biotechnology Co., Ltd, Shanghai, China) for tumor development. When tumor volume reaches a mean value of approximately 94 mm^3, 32 mice were divided into 4 groups of 8 equally and injected intravenously (i.v.) with PBS (control group), anti-CD47 antibody (i.e. T4J), rituximab, or anti-CD47 antibody T4J+ rituximab at a dose of 5 mg/kg, respectively (See, Table 5). The anti-tumor efficacy studies were performed using a twice per week dosing schedule (5 mg/kg) for 4 weeks.
# The first day of antibody administration was designated as day 0. Mice were then monitored for tumor development and progression, and observation continued until day 43. Tumor volumes were measured twice a week in two dimensions (length and width) using a caliper, and the volumes were calculated using the following formula: Volume (V)=(L×W×W)/2, where L is tumor length (the longest tumor dimension) and W is tumor width (the longest tumor dimension perpendicular to L). The percentage of tumor growth inhibition (TGI) was calculated as follows: 100%×(1−[(Vtreated(^finalday)−Vtreated(^initial day))/(Vcontrol(^final day)−Vcontrol(^initial day)))]), where V is the tumor volume. Tumor body weight was measured twice per week after randomization and at day 43. Antibody treatment was then stopped after 43 days of study and mice were euthanized and necropsied for evidence of tumors.
# Group comparisons were carried out using one-way analysis of variance (ANOVA). Data analysis were performed using IBM SPSS software version 18.0 (IBM, Armonk, N.Y., U.S.). Values of tumor volume and tumor body weight were expressed as mean±standard error of the mean (SEM). A P value of less than 0.05 (p<0.05) was considered statistically significant.
# [6] = Cpd 0.0016 uM, T4J = 0, R = 0.01 ug/ml
# [7] = Cpd 0.0016 uM, T4J = 0.1 ug/ml, R = 0
# [8] = Cpd 0.0016 uM, T4J = 0.1 ug/ml, R = 0.01 ug/ml
# [9] = Cpd 0.008 uM, T4J = 0, R = 0.01 ug/ml
# [10] = Cpd 0.008 uM, T4J = 0.1 ug/ml, R = 0
# [11] = Cpd 0.008 uM, T4J = 0.1 ug/ml, R = 0.01 ug/ml
# [12] = Cpd 0.04 uM, T4J = 0, R = 0.01 ug/ml
# [13] = Cpd 0.04 uM, T4J = 0.1 ug/ml, R = 0
# [14] = Cpd 0.04 uM, T4J = 0.1 ug/ml, R = 0.01 ug/ml
# [15] = Cpd 0.2 uM, T4J = 0, R = 0.01 ug/ml
# [16] = Cpd 0.2 uM, T4J = 0.1 ug/ml, R = 0
# [17] = Cpd 0.2 uM, T4J = 0.1 ug/ml, R = 0.01 ug/ml
# [18] = Cpd 1 uM, T4J = 0, R = 0.01 ug/ml
# [19] = Cpd 1 uM, T4J = 0.1 ug/ml, R = 0
# [20] = Cpd 1 uM, T4J = 0.1 ug/ml, R = 0.01 ug/ml
# [21] = from tumor volume, i.v., BIW × 4 weeks
compound,measurement,setting,value
Cn1c(CCCC(=O)O)nc2cc(N(CCCl)CCCl)ccc21 [Bendamustine],Macrophage viability (CellTiter-Glo Luminescent Cell Viability Assay),[1]; Cpd 0.002 uM,6292 and 6220 and 5908
same,Macrophage viability (CellTiter-Glo Luminescent Cell Viability Assay),[1]; Cpd 0.008 uM,6248 and 6356 and 6028
same,Macrophage viability (CellTiter-Glo Luminescent Cell Viability Assay),[1]; Cpd 0.04 uM,6248 and 6124 and 5788
same,Macrophage viability (CellTiter-Glo Luminescent Cell Viability Assay),[1]; Cpd 0.2 uM,6320 and 6664 and 5768
same,Macrophage viability (CellTiter-Glo Luminescent Cell Viability Assay),[1]; Cpd 1 uM,6220 and 6200 and 5436
same,Macrophage viability (CellTiter-Glo Luminescent Cell Viability Assay),[1]; Cpd 5 uM,6424 and 6308 and 5064
same,Macrophage viability (CellTiter-Glo Luminescent Cell Viability Assay),[1]; Cpd 25 uM,5884 and 5724 and 4340
same,Macrophage viability (CellTiter-Glo Luminescent Cell Viability Assay),[1]; Cpd 50 uM,5500 and 5736 and 4112
same,toxicity to macrophages,[1]; dose as high as 50 μM,showed toxicity
same,toxicity to macrophages,[1]; dose lower than 10 μM,little toxic
same,Mean Fluorescence Intensity (MFI) CD47,[2]; 0.008 uM,9132
same,Mean Fluorescence Intensity (MFI) CD47,[2]; 0.04 uM,8684
same,Mean Fluorescence Intensity (MFI) CD47,[2]; 0.2 uM,8687
same,Mean Fluorescence Intensity (MFI) CD47,[2]; 1 uM,8319
same,Mean Fluorescence Intensity (MFI) CD47,[2]; 5 uM,9192
same,Mean Fluorescence Intensity (MFI) Calreticulin,[3]; 0.008 uM,68.6
same,Mean Fluorescence Intensity (MFI) Calreticulin,[3]; 0.04 uM,70.1
same,Mean Fluorescence Intensity (MFI) Calreticulin,[3]; 0.2 uM,70.2
same,Mean Fluorescence Intensity (MFI) Calreticulin,[3]; 1 uM,76.3
same,Mean Fluorescence Intensity (MFI) Calreticulin,[3]; 5 uM,86.2
same,macrophage phagocytosis (untreated = 1.00),"[4]; Cpd 0.0016 uM, T4J = 0, R = 0",1.06
same,macrophage phagocytosis (untreated = 1.00),[4]; [6],1.58
same,macrophage phagocytosis (untreated = 1.00),[4]; [7],2.53
same,macrophage phagocytosis (untreated = 1.00),[4]; [8],3.29
same,macrophage phagocytosis (untreated = 1.00),"[4]; Cpd 0.008 uM, T4J = 0, R = 0",1.00
same,macrophage phagocytosis (untreated = 1.00),[4]; [9],1.52
same,macrophage phagocytosis (untreated = 1.00),[4]; [10],2.67
same,macrophage phagocytosis (untreated = 1.00),[4]; [11],3.26
same,macrophage phagocytosis (untreated = 1.00),"[4]; Cpd 0.04 uM, T4J = 0, R = 0",0.98
same,macrophage phagocytosis (untreated = 1.00),[4]; [12],1.53
same,macrophage phagocytosis (untreated = 1.00),[4]; [13],2.57
same,macrophage phagocytosis (untreated = 1.00),[4]; [14],3.19
same,macrophage phagocytosis (untreated = 1.00),"[4]; Cpd 0.2 uM, T4J = 0, R = 0",0.96
same,macrophage phagocytosis (untreated = 1.00),[4]; [15],1.41
same,macrophage phagocytosis (untreated = 1.00),[4]; [16],2.51
same,macrophage phagocytosis (untreated = 1.00),[4]; [17],3.10
same,macrophage phagocytosis (untreated = 1.00),"[4]; Cpd 1 uM, T4J = 0, R = 0",1.03
same,macrophage phagocytosis (untreated = 1.00),[4]; [18],1.46
same,macrophage phagocytosis (untreated = 1.00),[4]; [19],2.47
same,macrophage phagocytosis (untreated = 1.00),[4]; [20],3.05
same,phagocytic ability of macrophages,"[4]; triple combination: T4J, Rituximab and the small molecule",does not show the synergistic effects
"Rituximab: anti-CD20 antibody, heavy chain SEQ ID NO: 83, light chain SEQ ID NO: 84",Tumor Body Weight (mg) on day 43 (Mean ± SEM),"[5]; i.v., BIW × 4 weeks",1673.7 ± 269.0 mg
same,Tumor Volume (mm^3) on day 43 (Mean ± SEM),"[5]; i.v., BIW × 4 weeks",1578.37 ± 241.53 mm^3
same,T/C (%),[5]; from tumor body weight,66%
same,TGI (%),[5]; from tumor body weight,34%
same,T/C (%),[5]; [21],73%
same,TGI (%),[5]; [21],27%
same,macrophage phagocytosis (untreated = 1.00),"[4]; Cpd 0, T4J = 0, R = 0.01 ug/ml, listed as R",1.36 and 1.31 and 1.57 and 1.38
same,phagocytic ability of macrophages,[4]; agent itself or antibody combination,can promote macrophage phagocytosis
CC1(C)CCC(CN2CCN(c3ccc(C(=O)NS(=O)(=O)c4ccc(NCC5CCOCC5)c([N+](=O)[O-])c4)c(Oc4cnc5[nH]ccc5c4)c3)CC2)=C(c2ccc(Cl)cc2)C1 [Venetoclax],Macrophage viability (CellTiter-Glo Luminescent Cell Viability Assay),[1]; Cpd 0.002 uM,5968 and 6024 and 5856
same,Macrophage viability (CellTiter-Glo Luminescent Cell Viability Assay),[1]; Cpd 0.008 uM,6148 and 6172 and 5912
same,Macrophage viability (CellTiter-Glo Luminescent Cell Viability Assay),[1]; Cpd 0.04 uM,6288 and 6072 and 6264
same,Macrophage viability (CellTiter-Glo Luminescent Cell Viability Assay),[1]; Cpd 0.2 uM,7260 and 6072 and 5756
same,Macrophage viability (CellTiter-Glo Luminescent Cell Viability Assay),[1]; Cpd 1 uM,6052 and 6020 and 6088
same,Macrophage viability (CellTiter-Glo Luminescent Cell Viability Assay),[1]; Cpd 5 uM,5760 and 5660 and 6120
same,Macrophage viability (CellTiter-Glo Luminescent Cell Viability Assay),[1]; Cpd 25 uM,4696 and 4596 and 4776
same,Macrophage viability (CellTiter-Glo Luminescent Cell Viability Assay),[1]; Cpd 50 uM,1240 and 1132 and 1108
same,toxicity to macrophages,[1]; dose as high as 50 μM,showed toxicity
same,toxicity to macrophages,[1]; dose lower than 10 μM,little toxic
same,Mean Fluorescence Intensity (MFI) CD47,[2]; 0.008 uM,7873
same,Mean Fluorescence Intensity (MFI) CD47,[2]; 0.04 uM,6201
same,Mean Fluorescence Intensity (MFI) CD47,[2]; 0.2 uM,5206
same,Mean Fluorescence Intensity (MFI) CD47,[2]; 1 uM,4232
same,Mean Fluorescence Intensity (MFI) CD47,[2]; 5 uM,3540
same,inhibition of CD47 expression,[2]; dose of 5 μM,~50%
same,Mean Fluorescence Intensity (MFI) Calreticulin,[3]; 0.008 uM,117
same,Mean Fluorescence Intensity (MFI) Calreticulin,[3]; 0.04 uM,258
same,Mean Fluorescence Intensity (MFI) Calreticulin,[3]; 0.2 uM,471
same,Mean Fluorescence Intensity (MFI) Calreticulin,[3]; 1 uM,1123
same,Mean Fluorescence Intensity (MFI) Calreticulin,[3]; 5 uM,2533
same,increase of the expression level of calreticulin,[3]; dose of 5 μM,~120 folds
same,macrophage phagocytosis (untreated = 1.00),"[4]; Cpd 0.0016 uM, T4J = 0, R = 0",1.00
same,macrophage phagocytosis (untreated = 1.00),[4]; [6],1.45
same,macrophage phagocytosis (untreated = 1.00),[4]; [7],2.62
same,macrophage phagocytosis (untreated = 1.00),[4]; [8],3.23
same,macrophage phagocytosis (untreated = 1.00),"[4]; Cpd 0.008 uM, T4J = 0, R = 0",1.10
same,macrophage phagocytosis (untreated = 1.00),[4]; [9],1.54
same,macrophage phagocytosis (untreated = 1.00),[4]; [10],2.59
same,macrophage phagocytosis (untreated = 1.00),[4]; [11],3.30
same,macrophage phagocytosis (untreated = 1.00),"[4]; Cpd 0.04 uM, T4J = 0, R = 0",1.17
same,macrophage phagocytosis (untreated = 1.00),[4]; [12],1.82
same,macrophage phagocytosis (untreated = 1.00),[4]; [13],2.64
same,macrophage phagocytosis (untreated = 1.00),[4]; [14],3.37
same,macrophage phagocytosis (untreated = 1.00),"[4]; Cpd 0.2 uM, T4J = 0, R = 0",1.41
same,macrophage phagocytosis (untreated = 1.00),[4]; [15],1.93
same,macrophage phagocytosis (untreated = 1.00),[4]; [16],2.81
same,macrophage phagocytosis (untreated = 1.00),[4]; [17],3.64
same,macrophage phagocytosis (untreated = 1.00),"[4]; Cpd 1 uM, T4J = 0, R = 0",1.56
same,macrophage phagocytosis (untreated = 1.00),[4]; [18],2.03
same,macrophage phagocytosis (untreated = 1.00),[4]; [19],2.91
same,macrophage phagocytosis (untreated = 1.00),[4]; [20],3.65
